Results from ChEMBL document CHEMBL4619820, “Development of Novel AKR1C3 Inhibitors as New Potential Treatment for Castration-Resistant Prostate Cancer” (J Med Chem, 2020).
Changes are numbered by the printed parent chain. The source made the active and inactive calls. No cut-off for these calls is given here.

These compounds were tested against T1, Carbonyl reductase [NADPH] 1 (Homo sapiens, UniProt P16152) (assay: Inhibition of CBR1 (unknown origin)). Details: not given.
T1 sequence (P16152 whole entry): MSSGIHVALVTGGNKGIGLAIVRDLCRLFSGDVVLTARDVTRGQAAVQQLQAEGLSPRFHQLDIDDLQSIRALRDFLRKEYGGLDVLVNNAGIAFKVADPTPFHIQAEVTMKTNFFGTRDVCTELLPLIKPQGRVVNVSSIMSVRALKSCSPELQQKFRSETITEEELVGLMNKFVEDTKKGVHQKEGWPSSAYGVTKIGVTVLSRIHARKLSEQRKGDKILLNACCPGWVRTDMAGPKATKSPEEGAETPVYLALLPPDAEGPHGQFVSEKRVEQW

`CCc1cccc(NC(=O)c2cc3cccc(O)c3oc2=N)c1` and `Cc1ccc(NC(=O)c2cc3cccc(O)c3oc2=N)cc1` are within 1.5-fold of each other in IC50: 250 nM for the first, 270 nM for the second.

In the case of `N=c1oc2c(O)cccc2cc1C(=O)Nc1ccc(F)cc1`, the IC50 is reported as 440 nM.

What follows are compounds tested against T2, Aldo-keto reductase family 1 member C3 (Homo sapiens, UniProt P42330) (assay: Inhibition of recombinant AKR1C3 (unknown origin) assessed as reduction in S-tetralol-induced dehydrogenase activity by measuring NADPH level). Details: not given.
T2 sequence (P42330 whole entry): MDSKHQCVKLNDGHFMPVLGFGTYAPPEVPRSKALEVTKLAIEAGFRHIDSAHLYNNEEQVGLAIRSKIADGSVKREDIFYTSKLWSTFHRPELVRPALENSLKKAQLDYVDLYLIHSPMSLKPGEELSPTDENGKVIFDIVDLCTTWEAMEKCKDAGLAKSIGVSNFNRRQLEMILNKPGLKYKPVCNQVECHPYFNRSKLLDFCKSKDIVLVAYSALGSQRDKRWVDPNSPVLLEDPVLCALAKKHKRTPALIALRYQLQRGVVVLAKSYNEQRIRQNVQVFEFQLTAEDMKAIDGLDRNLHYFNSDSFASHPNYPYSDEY

`CCc1cccc(NC(=O)c2cc3cccc(O)c3oc2=N)c1` and `Cc1ccc(NC(=O)c2cc3cccc(O)c3oc2=N)cc1` are within 1.5-fold of each other in IC50: 34 nM for the first, 27 nM for the second.

For `N=c1oc2c(O)cccc2cc1C(=O)Nc1ccc(F)cc1`, the IC50 was 25 nM.

What follows are compounds tested against T3, Aldo-keto reductase family 1 member C1 (Homo sapiens, UniProt Q04828) (assay: Inhibition of recombinant AKR1C1 (unknown origin) assessed as reduction in S-tetralol-induced dehydrogenase activity by measuring NADPH level). Details: not given.
T3 sequence (Q04828 whole entry): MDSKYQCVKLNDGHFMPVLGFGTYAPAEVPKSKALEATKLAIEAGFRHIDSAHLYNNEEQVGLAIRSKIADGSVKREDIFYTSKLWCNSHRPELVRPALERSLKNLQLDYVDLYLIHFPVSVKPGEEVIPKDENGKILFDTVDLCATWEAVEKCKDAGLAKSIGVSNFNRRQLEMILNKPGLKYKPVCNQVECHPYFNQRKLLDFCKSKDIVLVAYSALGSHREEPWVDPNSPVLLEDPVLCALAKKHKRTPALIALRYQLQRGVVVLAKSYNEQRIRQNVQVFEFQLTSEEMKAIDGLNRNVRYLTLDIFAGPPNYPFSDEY

`CCc1cccc(NC(=O)c2cc3cccc(O)c3oc2=N)c1` and `Cc1ccc(NC(=O)c2cc3cccc(O)c3oc2=N)cc1` cannot be ordered by IC50: over 10000 nM for the first, over 10000 nM for the second.

`N=c1oc2c(O)cccc2cc1C(=O)Nc1ccc(F)cc1` was tested, and the IC50 was 6000 nM.

The compounds below were run against T4, Aldo-keto reductase family 1 member C2 (Homo sapiens, UniProt P52895) (assay: Inhibition of recombinant AKR1C2 (unknown origin) assessed as reduction in S-tetralol-induced dehydrogenase activity by measuring NADPH level). Details: not given.
T4 sequence (P52895 whole entry): T3 sequence (Q04828 whole entry) with T38V, R47H, L54V, C87S, V151M, R170H, Q172L

`CCc1cccc(NC(=O)c2cc3cccc(O)c3oc2=N)c1` and `Cc1ccc(NC(=O)c2cc3cccc(O)c3oc2=N)cc1` cannot be ordered by IC50: over 10000 nM for the first, over 10000 nM for the second.

Work on `N=c1oc2c(O)cccc2cc1C(=O)Nc1ccc(F)cc1` yielded an IC50 of over 10000 nM.

What follows are compounds tested against T5, Aldo-keto reductase family 1 member C4 (Homo sapiens, UniProt P17516) (assay: Inhibition of recombinant AKR1C4 (unknown origin) assessed as reduction in S-tetralol-induced dehydrogenase activity by measuring NADPH level). Details: not given.
T5 sequence (P17516 whole entry): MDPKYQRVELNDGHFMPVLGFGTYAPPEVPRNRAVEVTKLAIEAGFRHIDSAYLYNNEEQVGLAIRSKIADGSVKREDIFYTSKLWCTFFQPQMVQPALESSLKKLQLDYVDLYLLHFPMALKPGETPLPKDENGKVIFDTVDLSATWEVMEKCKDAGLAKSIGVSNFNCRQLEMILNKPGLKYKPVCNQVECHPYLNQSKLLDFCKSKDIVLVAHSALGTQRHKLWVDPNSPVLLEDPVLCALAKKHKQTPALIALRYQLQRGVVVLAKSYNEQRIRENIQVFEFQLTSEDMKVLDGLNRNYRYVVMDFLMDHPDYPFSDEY

`CCc1cccc(NC(=O)c2cc3cccc(O)c3oc2=N)c1` and `Cc1ccc(NC(=O)c2cc3cccc(O)c3oc2=N)cc1` cannot be ordered by IC50: over 10000 nM for the first, over 10000 nM for the second.

`N=c1oc2c(O)cccc2cc1C(=O)Nc1ccc(F)cc1` showed an IC50 of over 10000 nM.

Organism: Homo sapiens
Experiment: Ratio of IC50 for inhibition of recombinant AKR1C1 (unknown origin) inhibition of recombinant AKR1C3 (unknown origin)
Details: not given

`CCc1cccc(NC(=O)c2cc3cccc(O)c3oc2=N)c1` and `Cc1ccc(NC(=O)c2cc3cccc(O)c3oc2=N)cc1` cannot be ordered by Ratio IC50: over 300 for the first, over 370 for the second.

In the case of `N=c1oc2c(O)cccc2cc1C(=O)Nc1ccc(F)cc1`, the Ratio IC50 is reported as 240.

Organism: Homo sapiens
Experiment: Ratio of IC50 for inhibition of recombinant AKR1C2 (unknown origin) inhibition of recombinant AKR1C3 (unknown origin)
Details: not given

`CCc1cccc(NC(=O)c2cc3cccc(O)c3oc2=N)c1` and `Cc1ccc(NC(=O)c2cc3cccc(O)c3oc2=N)cc1` cannot be ordered by Ratio IC50: over 300 for the first, over 370 for the second.

For `N=c1oc2c(O)cccc2cc1C(=O)Nc1ccc(F)cc1`, the Ratio IC50 was over 400.

Organism: Homo sapiens
Experiment: Ratio of IC50 for inhibition of recombinant AKR1C4 (unknown origin) inhibition of recombinant AKR1C3 (unknown origin)
Details: not given

`CCc1cccc(NC(=O)c2cc3cccc(O)c3oc2=N)c1` and `Cc1ccc(NC(=O)c2cc3cccc(O)c3oc2=N)cc1` cannot be ordered by Ratio IC50: over 300 for the first, over 370 for the second.

Work on `N=c1oc2c(O)cccc2cc1C(=O)Nc1ccc(F)cc1` yielded a Ratio IC50 of over 400.

Organism: Homo sapiens
Experiment: Ratio of IC50 for inhibition of CBR1 (unknown origin) inhibition of recombinant AKR1C3 (unknown origin)
Details: not given

First: CCc1cccc(NC(=O)c2cc3cccc(O)c3oc2=N)c1
Second: Cc1ccc(NC(=O)c2cc3cccc(O)c3oc2=N)cc1
The Ratio IC50 of the first is lower: 7 for the first, 10 for the second.

In the case of `N=c1oc2c(O)cccc2cc1C(=O)Nc1ccc(F)cc1`, the Ratio IC50 is reported as 18.

The compounds below were run against T6, Androgen receptor (Homo sapiens) (UniProt P10275) (assay: Agonistic activity at AR in human 22Rv1 cells assessed as effect on cell number at 1 nM by CCK8 assay). Details: CWR22R.
T6 sequence (whole entry): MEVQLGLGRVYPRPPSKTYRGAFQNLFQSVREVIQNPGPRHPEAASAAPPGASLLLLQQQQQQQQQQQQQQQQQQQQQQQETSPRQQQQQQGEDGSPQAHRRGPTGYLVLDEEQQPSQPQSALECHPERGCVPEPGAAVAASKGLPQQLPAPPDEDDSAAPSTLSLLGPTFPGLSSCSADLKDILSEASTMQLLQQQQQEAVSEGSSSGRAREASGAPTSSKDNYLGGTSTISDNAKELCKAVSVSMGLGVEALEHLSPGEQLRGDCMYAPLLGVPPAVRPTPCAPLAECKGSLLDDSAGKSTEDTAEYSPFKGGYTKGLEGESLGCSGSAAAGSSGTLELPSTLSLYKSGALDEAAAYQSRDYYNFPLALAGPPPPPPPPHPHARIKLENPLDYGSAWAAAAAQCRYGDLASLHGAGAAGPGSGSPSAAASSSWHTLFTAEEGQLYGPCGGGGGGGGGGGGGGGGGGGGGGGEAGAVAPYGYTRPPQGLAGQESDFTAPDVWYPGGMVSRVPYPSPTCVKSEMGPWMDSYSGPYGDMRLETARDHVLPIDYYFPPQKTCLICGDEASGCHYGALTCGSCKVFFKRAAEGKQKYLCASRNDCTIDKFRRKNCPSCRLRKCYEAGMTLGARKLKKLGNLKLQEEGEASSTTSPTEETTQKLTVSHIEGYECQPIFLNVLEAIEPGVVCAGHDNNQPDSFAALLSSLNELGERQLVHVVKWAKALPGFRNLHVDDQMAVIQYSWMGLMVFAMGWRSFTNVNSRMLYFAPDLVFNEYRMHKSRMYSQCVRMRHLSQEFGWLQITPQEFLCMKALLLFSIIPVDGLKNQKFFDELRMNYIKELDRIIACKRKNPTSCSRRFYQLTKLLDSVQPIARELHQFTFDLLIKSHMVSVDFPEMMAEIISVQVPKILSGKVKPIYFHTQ
Format: cell-based

In the case of `CCc1cccc(NC(=O)c2cc3cccc(O)c3oc2=N)c1`, the Activity is reported as “inactive”.
With `N=c1oc2c(O)cccc2cc1C(=O)Nc1ccc(F)cc1` the Activity was “inactive”.
`Cc1ccc(NC(=O)c2cc3cccc(O)c3oc2=N)cc1` was tested, and the Activity was “inactive”.
